Experimental data as given in publication PMC8878317, “Chemogenomics identifies acetyl-coenzyme A synthetase as a target for malaria treatment and prevention” (Cell Chemical Biology, 2022).
Where two headings read alike, the source gives them in different places.

Columns and labels:
Type in all cases: cell-based
[1] = test system: P. falciparum 3D7 parasites; assay: Metabolomic profiling of compound-treated parasites (LC/MS); design: Metabolite data: dTMP / Metabolite data: GMP / Metabolite data: S-Adenosyl-L-Homocysteine / Metabolite data: 1_3-Bisphosphoglyceric acid: scale not given here;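 on Metabolite data: 3-Phosphoglycerate: Log2 fold change in abundance versus untreated parasite controls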;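 on Metabolite data: Myo-Inositol: Log2 fold change in abundance versus untreated parasite controls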;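 on Metabolite data: N-Carbamoyl-L-Aspartate: Log2 fold change in abundance versus untreated parasite controls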;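 on Metabolite data: Nicotinate: Log2 fold change in abundance versus untreated parasite controls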
Method in brief: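 Magnetically purified trophozoites (1×10^8 parasites/mL) recovered 1 h in RPMI 1640, incubated a further 2.5 h, quenched in 90% methanol with labeled aspartate. Extracts analysed by reverse-phase C18 LC with negative-mode Orbitrap MS; peak areas normalized to internal standards, blank-subtracted and averaged by condition.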

[2] = test system: histone acetylation in P. falciparum 3D7-A10; assay: Histone acetylation Western blot, wild-type 3D7-A10; settings: trophozoites, 3 h exposure
Experimental: (§1) Synchronous trophozoite-stage (24-32hr post-invasion) cultures at 3–5% parasitemia and 2% hematocrit in complete medium were exposed to test compounds for 3 hr at 37°C. […] DMSO was tested at 0.1% as the vehicle-only control. Following drug exposure, parasites were isolated via saponin lysis ice-cold 0.1% saponin in phosphate-buffered saline (PBS). Isolated parasites were washed 3x in ice-cold PBS containing protease inhibitor cocktail (cOmplete mini, Roche) and lysed in 1x Laemmli Sample Buffer (Biorad) with 5% beta-mercaptoethanol (Sigma-Aldrich). Samples were heated at 99°C for 10 min before centrifugation. Equal quantities of solute were separated on Protean TGX Precast Gels (4–20% gradient) in Tris-SDS-glycine buffer, transferred to nitrocellulose membrane by iblot (Invitrogen), and blocked for 1h in tris-buffered saline (TBS) with 5% skim milk powder. Blocked membranes were probed with antibodies recognising tetra-acetylated H4 (H4ac4, Sigma-Aldrich 06–866), H4K8ac (CST #2594), H3K9ac (CST #9649) or H3 (CST #4499), at 1:1000 dilution, and PfBiP ([Shonhai et al., 2007]) (at 1:5000 dilution) in 3% milk powder TBS with 0.1% Tween 20 at 4°C overnight and with 800CW goat α-rabbit IgG (Licor) at 1:10,000 dilution. Membranes were visualised using a Licor Odyssey CLX imaging system and quantified using ImageJ.

[3] = test system: P. falciparum MMV084978-resistant clones (Dd2-B2 derived); assay: Dose-response assay of MMV084978-selected resistant clones; settings: Plasmodium falciparum
Experimental: Ring-stage parasites were cultured for 72 hr at 1% hematocrit and 1% starting parasitemia in 384-well black clear-bottom plates containing test compounds plated in triplicate in 12-point serial dilutions. […] Alternatively, Dd2-B2 ring-stage cultures at 0.3% parasitemia and 1% hematocrit were exposed for 72 hr to a range of ten drug concentrations that were 2-fold serially diluted in duplicates along with drug-free controls. Parasite survival was assessed by flow cytometry on an Accuri C6 (BD Biosciences) using SYBR Green and MitoTracker Deep Red FM (Life Technologies) as nucleic acid stain and vital dyes respectively. EC50 values were calculated using a nonlinear regression curve fit in Prism Software version 8 (GraphPad).
Bulk cultures were tested for reduced drug susceptibility and individual clones were isolated by limiting dilution.

[4] = test system: histone acetylation in P. falciparum Dd2 parent; assay: Histone acetylation Western blot, Dd2 parent; settings: trophozoites, 3 h exposure
Experimental: as §1

[5] = test system: P. falciparum parasites; assay: Isobologram analyses (fractional IC50 of compound combinations); settings: combination with TSA

O=C1C(O)=C([C@H]2CC[C@H](c3ccc(Cl)cc3)CC2)C(=O)c2ccccc21 [Atovaquone, reference compound]
Metabolite data: 1_3-Bisphosphoglyceric acid [1]: 0 | Metabolite data: 2_3-Diphosphoglyceric acid [1]: -0.24 | Metabolite data: 3-Phosphoglycerate [1]: 0 | Metabolite data: 4-Aminobutyrate [1]: 0.16 | Metabolite data: 4-Phosphopantothenate [1]: -0.34 | Metabolite data: 4-phosphopantetheine [1]: 0 | Metabolite data: 5-aminopentanoic acid [1]: 0 | Metabolite data: 5-phosphoribosyl-1-pyrophosphate [1]: 0 | Metabolite data: 6-Phospho-D-Gluconate [1]: 0.06 | Metabolite data: ADP-D-Glucose [1]: 0.04 | Metabolite data: Acetyl-CoA [1]: -0.68 | Metabolite data: Acetyllysine [1]: -0.01 | Metabolite data: Aconitate [1]: 0.31 | Metabolite data: CDP [1]: -0.84 | Metabolite data: CDP-Ethanolamine [1]: -0.15 | Metabolite data: CDP-choline [1]: 0 | Metabolite data: CMP [1]: -0.8 | Metabolite data: CTP [1]: -0.85 | Metabolite data: Citrate/Isocitrate [1]: -0.17 | Metabolite data: Cyclic-AMP [1]: 0.13 | Metabolite data: Dihydroorotate [1]: 4.84 | Metabolite data: FAD [1]: 0.09 | Metabolite data: FMN [1]: -1.11 | Metabolite data: Fructose-1,6-Bisphosphate [1]: 0.15 | Metabolite data: Fumarate [1]: 0.18 | Metabolite data: GDP [1]: -0.12 | Metabolite data: GMP [1]: 0.4 | Metabolite data: GTP [1]: 0.09 | Metabolite data: Glucose-1/6-Phosphate [1]: -0.03 | Metabolite data: Glutathione Disulfide [1]: 0.11 | Metabolite data: Hexose [1]: 0 | Metabolite data: Hydroxyisocaproic acid [1]: 0 | Metabolite data: Indole [1]: 0.06 | Metabolite data: Ketoleucine [1]: 0 | Metabolite data: L-arginino-succinate [1]: 0 | Metabolite data: Lactate [1]: 0.09 | Metabolite data: Malate [1]: 0.05 | Metabolite data: Myo-Inositol [1]: -0.06 | Metabolite data: N-Acetyl-Glutamate [1]: 0.13 | Metabolite data: N-Acetyl-L-Alanine [1]: 0.22 | Metabolite data: N-Acetyl-L-Ornithine [1]: -0.16 | Metabolite data: N-Carbamoyl-L-Aspartate [1]: 4.58 | Metabolite data: NAD+ [1]: 0.08 | Metabolite data: NADH [1]: 1.7 | Metabolite data: NADP+ [1]: -0.1 | Metabolite data: NADPH [1]: 0.32 | Metabolite data: Nicotinate [1]: -0.09 | Metabolite data: Octulose 8/1-Phosphate [1]: -0.01 | Metabolite data: Orotate [1]: 0.81 | Metabolite data: PD [1]: 0 | Metabolite data: PE [1]: 0 | Metabolite data: PEEK [1]: 0 | Metabolite data: Phenol Red [1]: 0 | Metabolite data: Pyroglutamic acid [1]: 0.06 | Metabolite data: S-Adenosyl-L-Homocysteine [1]: 0.32 | Metabolite data: S-methyl-5'-thioadenosine [1]: -0.26 | Metabolite data: SD [1]: 0 | Metabolite data: Sedoheptulose Bisphosphate [1]: 0.01 | Metabolite data: UDP [1]: -1.17 | Metabolite data: UDP-D-Glucose [1]: -0.06 | Metabolite data: UDP-D-Glucuronate [1]: -0.13 | Metabolite data: UDP-N-Acetyl-Glucosamine [1]: -0.25 | Metabolite data: UMP [1]: -0.68 | Metabolite data: UTP [1]: -1.12 | Metabolite data: a-ketoglutarate [1]: -0.04 | Metabolite data: acetyl-aspartate [1]: 0 | Metabolite data: arginine [1]: 0 | Metabolite data: asparagine [1]: 0 | Metabolite data: aspartate [1]: 0 | Metabolite data: biotin [1]: 0 | Metabolite data: chlorpropamide [1]: 0 | Metabolite data: coenzyme A [1]: 0 | Metabolite data: dAMP [1]: -0.09 | Metabolite data: dATP [1]: 0.28 | Metabolite data: dCDP [1]: -0.01 | Metabolite data: dCMP [1]: -0.39 | Metabolite data: dCTP [1]: -0.38 | Metabolite data: dGDP/ADP [1]: 0 | Metabolite data: dGMP/AMP [1]: -0.1 | Metabolite data: dGTP/ATP [1]: 0 | Metabolite data: dTDP [1]: -0.95 | Metabolite data: dTMP [1]: -0.81 | Metabolite data: dTTP [1]: -0.98 | Metabolite data: folate [1]: 0 | Metabolite data: glucono-lactone [1]: 0 | Metabolite data: glutamate [1]: 0 | Metabolite data: glutamine [1]: 0 | Metabolite data: glutathione [1]: 0 | Metabolite data: histidine [1]: 0 | Metabolite data: hydroxyproline/Aminolevulinate [1]: 0 | Metabolite data: isoleucine [1]: 0 | Metabolite data: leucine [1]: 0 | Metabolite data: maleic acid [1]: 0 | Metabolite data: methionine [1]: 0 | Metabolite data: nicotinamide mononucleotide [1]: 0 | Metabolite data: orotidine-5'-phosphate [1]: 0 | acetylation of H4K8ac, H3K9ac and tetra-acetylated H4 (H4Ac4) histone markers relative to DMSO [2]: no effect

O=C(NNC(=O)c1csnn1)c1ccc(Cl)cc1 [MMV084978]
EC50 ([3]; DD2, read-out: MMV084978 mean EC50 (nM) ± SD (n), selection 1, Dd2-B2, clone A7, AcAS:A597V): > 9600 nM | EC50 ([3]; DD2, read-out: MMV084978 mean EC50 (nM) ± SD (n), selection 1, Dd2-B2, clone C11, sequencing not determined): 2500 ± 42 nM | EC50 ([3]; DD2, read-out: MMV084978 mean EC50 (nM) ± SD (n), selection 1, Dd2-B2, clone E5, sequencing not determined): 2600 ± 47 nM | EC50 ([3]; DD2, read-out: MMV084978 mean EC50 (nM) ± SD (n), selection 1, Dd2-B2, clone F1, sequencing not determined): 2800 ± 260 nM | EC50 ([3]; DD2, read-out: MMV084978 mean EC50 (nM) ± SD (n), selection 1, Dd2-B2, clone F9, sequencing not determined): 2100 ± 53 nM | EC50 ([3]; DD2, read-out: MMV084978 mean EC50 (nM) ± SD (n), selection 1, Dd2-B2, clone G8, AcAS:A652S): 2500 ± 24 nM | EC50 ([3]; DD2, read-out: MMV084978 mean EC50 (nM) ± SD (n), selection 2, Dd2-B2, clone B8, sequencing not determined): 2400 ± 33 nM | EC50 ([3]; DD2, read-out: MMV084978 mean EC50 (nM) ± SD (n), selection 2, Dd2-B2, clone C4, sequencing not determined): 2400 ± 1.7 nM | EC50 ([3]; DD2, read-out: MMV084978 mean EC50 (nM) ± SD (n), selection 2, Dd2-B2, clone E9, AcAS:A652S): 2600 ± 76 nM | EC50 ([3]; DD2, read-out: MMV084978 mean EC50 (nM) ± SD (n), selection 2, Dd2-B2, clone F8, sequencing not determined): 2600 ± 7 nM | EC50 ([3]; DD2, read-out: MMV084978 mean EC50 (nM) ± SD (n), selection 2, Dd2-B2, clone H12, AcAS:Y607C): 970 ± 41 nM

CCN(CC)S(=O)(=O)c1ccc(Cl)c(C(=O)Nc2ccc3nc(C)sc3c2)c1 [MMV019721]
histone acetylation in Dd2 parent [4]: dose-dependent reduction | interaction in isobologram analyses with the HDAC inhibitor TSA [5]: strongly antagonistic
